Results: patent publication US20090304688A1, “Methods and Compositions for Increasing the Efficiency of Therapeutic Antibodies Using Gamma Delta T Cell Activators” (INNATE PHARMA S.A., priority 2006, published 2009)

Test system: γδ T lymphocytes
Assay: In vivo amplification of γδ T lymphocytes in primates

## 3-(bromomethyl)-3-butanol-1-yl-diphosphate [BrHPP]
BrHPP 90 mg/kg i.v. with IL-2 in rituximab-treated animals
  amplification of γδ T lymphocytes in vivo: efficiently and repeatedly amplified
BrHPP in rituximab-treated animals compared with BrHPP alone
  level and kinetics of γδ T lymphocyte response: at least as good as what is generally observed with BrHPP alone
